Measurements from patent US20240139193A1, “COMBINATION THERAPY OF KRAS INHIBITOR AND SHP2 INHIBITOR FOR TREATMENT OF CANCERS” (AMGEN INC., priority 2019, published 2024).

Columns and labels:
[1] = tested on: KRAS p.G12C tumors; test: Preclinical anti-tumor efficacy of AMG 510; format: in vivo
[2] = tested on: KRAS p.G12C tumors; test: AMG 510 treatment in immune-competent mice; format: in vivo
[3] = tested on: KRAS p.G12C models; conditions: preclinical KRAS p.G12C models; cited from earlier work

With `C=CC(=O)N1CCN(c2nc(=O)n(-c3c(C)ccnc3C(C)C)c3nc(-c4c(O)cccc4F)c(F)cc23)[C@@H](C)C1` [Compound A, 4-((S)-4-acryloyl-2-methylpiperazin-1-yl)-6-fluoro-7-(2-fluoro-6-hydroxyphenyl)-1-(2-isopropyl-4-methylpyridin-3-yl)pyrido[2,3-d]pyrimidin-2(1H)-one] the “anti-tumor efficacy of chemotherapy and targeted agents in combination” value [1] was “significantly improved” and the “outcome in combination with immune checkpoint inhibition” value [2] was “durable cures”.
In the case of `C=CC(=O)N1CCN(c2ncnc3c(F)c(-c4c(O)cccc4F)c(Cl)cc23)CC1` [ARS-1620], the in vivo efficacy [3] is listed as “demonstrates in vivo efficacy”.
